Test results: paper PMC4081830, “Structure of the Trehalose-6-phosphate Phosphatase from Brugia malayi Reveals Key Design Principles for Anthelmintic Drugs” (PLoS Pathogens, 2014)

Tests used:
[1] = biological target: T1, B. malayi T6PP (trehalose-6-phosphate phosphatase), wild type (Brugia malayi, UniProt A8NS89); assay: steady-state inhibition kinetics, EnzChek phosphate assay; format: biochemical; conditions: read-out: KI, trehalose 6-sulfate
T1 construct: gene Bm1_08695; full-length (492 residues) from cDNA library, modified pET-15b(TEV), E. coli T7 Express; N-terminal His-tag removed by TEV protease
T1 sequence (A8NS89 1-492): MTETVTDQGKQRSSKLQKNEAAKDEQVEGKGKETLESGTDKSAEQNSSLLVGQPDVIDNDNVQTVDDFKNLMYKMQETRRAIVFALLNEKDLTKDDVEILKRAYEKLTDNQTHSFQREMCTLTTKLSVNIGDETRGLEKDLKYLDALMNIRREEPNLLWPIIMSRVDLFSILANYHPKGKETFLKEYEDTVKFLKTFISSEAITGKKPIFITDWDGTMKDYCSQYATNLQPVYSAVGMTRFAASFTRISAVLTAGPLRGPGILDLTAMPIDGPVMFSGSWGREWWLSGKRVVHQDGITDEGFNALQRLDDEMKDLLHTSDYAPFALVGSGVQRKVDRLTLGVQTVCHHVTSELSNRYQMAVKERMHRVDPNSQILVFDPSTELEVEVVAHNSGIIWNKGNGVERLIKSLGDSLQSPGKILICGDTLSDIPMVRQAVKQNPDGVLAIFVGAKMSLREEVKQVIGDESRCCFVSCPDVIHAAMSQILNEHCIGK

[2] = biological target: T2, B. malayi T6PP (trehalose-6-phosphate phosphatase), wild type (Brugia malayi, UniProt A8NS89, D378A); assay: biochemical
T2 construct: gene Bm1_08695
From the text: (§1) steady-state inhibition kinetics, EnzChek phosphate assay on B. malayi T6PP (trehalose-6-phosphate phosphatase), wild type

[3] = biological target: T3, B. malayi T6PP (trehalose-6-phosphate phosphatase), wild type (Brugia malayi, UniProt A8NS89, E384A); assay: biochemical
T3 construct: gene Bm1_08695
From the text: as §1

[4] = biological target: T4, B. malayi T6PP (trehalose-6-phosphate phosphatase), wild type (Brugia malayi, UniProt A8NS89, K334A); assay: biochemical
T4 construct: gene Bm1_08695
From the text: as §1

[5] = biological target: T5, B. malayi T6PP (trehalose-6-phosphate phosphatase), wild type (Brugia malayi, UniProt A8NS89, N228A); assay: biochemical
T5 construct: gene Bm1_08695
From the text: as §1

[6] = biological target: T6, B. malayi T6PP (trehalose-6-phosphate phosphatase), wild type (Brugia malayi, UniProt A8NS89, Q332A); assay: biochemical
T6 construct: gene Bm1_08695
From the text: as §1

[7] = biological target: T7, B. malayi T6PP (trehalose-6-phosphate phosphatase), wild type (Brugia malayi, UniProt A8NS89, R337A); assay: biochemical
T7 construct: gene Bm1_08695
From the text: as §1

[8] = biological target: T8, B. malayi T6PP (trehalose-6-phosphate phosphatase), wild type (Brugia malayi, UniProt A8NS89, S329A); assay: biochemical
T8 construct: gene Bm1_08695
From the text: as §1

[9] = biological target: T9, B. malayi T6PP (trehalose-6-phosphate phosphatase), wild type (Brugia malayi, UniProt A8NS89, W280A); assay: biochemical
T9 construct: gene Bm1_08695
From the text: as §1

[10] = biological target: T10, B. malayi T6PP (trehalose-6-phosphate phosphatase), wild type (Brugia malayi, UniProt A8NS89, Y221A); assay: biochemical
T10 construct: gene Bm1_08695
From the text: as §1

[11] = biological target: T11, B. malayi T6PP (trehalose-6-phosphate phosphatase), wild type (Brugia malayi, UniProt A8NS89, Y225A); assay: biochemical
T11 construct: gene Bm1_08695
From the text: as §1

[12] = biological target: T1, B. malayi T6PP (trehalose-6-phosphate phosphatase), wild type; assay: inhibition kinetics; format: biochemical
[13] = tested on: O=P(O)(O)OC[C@H]1O[C@H](O[C@H]2O[C@H](CO)[C@@H](O)[C@H](O)[C@H]2O)[C@H](O)[C@@H](O)[C@@H]1O; assay: steady-state kinetics, EnzChek phosphate assay; format: biochemical, Brugia malayi; conditions: 25 mM Tris pH 7.5, 50 mM NaCl, 5 mM MgCl2
From the text: steady-state kinetics, EnzChek phosphate assay on T6PP-Δ59

[14] = substrate: O=P(O)(O)OC[C@H]1O[C@H](O[C@H]2O[C@H](CO)[C@@H](O)[C@H](O)[C@H]2O)[C@H](O)[C@@H](O)[C@@H]1O; assay: steady-state kinetics, EnzChek phosphate assay; format: biochemical, Brugia malayi; conditions: 25 mM Tris pH 7.5, 50 mM NaCl, 5 mM MgCl2; remark: listed apart in the source
From the text: steady-state kinetics, EnzChek phosphate assay on B. malayi T6PP (trehalose-6-phosphate phosphatase), wild type

O=S(=O)(O)OC[C@H]1O[C@H](O[C@H]2O[C@H](CO)[C@@H](O)[C@H](O)[C@H]2O)[C@H](O)[C@@H](O)[C@@H]1O [trehalose 6-sulfate]
Ki [1]: 82 ± 7 µM
Ki [2]: 320 ± 30 µM
Ki [3]: 200 ± 30 µM
Ki [4]: 150 ± 20 µM
Ki [5]: 16 ± 2 µM
Ki [6]: 1000 µM
Ki [7]: 700 ± 100 µM
Ki [8]: 240 ± 30 µM
Ki [9]: 270 ± 50 µM
Ki [10]: 1300 µM
Ki [11]: 400 ± 40 µM

OC[C@H]1O[C@H](O[C@H]2O[C@H](CO)[C@@H](O)[C@H](O)[C@H]2O)[C@H](O)[C@@H](O)[C@@H]1O [trehalose]
Ki [12]: > 10000 µM

O=P(O)(O)OC[C@H]1OC(O)[C@H](O)[C@@H](O)[C@@H]1O (stereo partly shown) [glucose 6-phosphate]
Ki ([12]; no inhibition, substrate trehalose 6-phosphate): > 10000 µM

T6PP-Δ59 (Brugia malayi)
Km [13]: 260 ± 20 µM
kcat [13]: 28 ± 1 s⁻¹
kcat/Km [13]: 110000 M⁻¹ s⁻¹

B1: B. malayi T6PP (trehalose-6-phosphate phosphatase), wild type (Brugia malayi) (protein)
chain: T1 sequence (A8NS89 1-492)
notes: full-length (492 residues) from cDNA library, modified pET-15b(TEV), E. coli T7 Express; N-terminal His-tag removed by TEV protease
Km [14]: 360 ± 60 µM
kcat [14]: 24 ± 2 s⁻¹
kcat/Km [14]: 69000 M⁻¹ s⁻¹
